Measured values from BindingDB's records for doi:10.1021/jm980032l (Wake Forest University School of Medicine, 1998).

Assays:
[1] = target: Sigma non-opioid intracellular receptor 1 (Cavia porcellus) (UniProt Q60492); experiment: Binding affinity against sigma-1 receptor in guinea pig brain membranes using [3H](+)-pentazocine as the radioligand
[2] = target: Sigma non-opioid intracellular receptor 1 (Cavia porcellus) (UniProt Q60492); experiment: Compound tested for binding affinity towards sigma 1 receptor in quinea pig brain membranes using [3H](+)-pentazocine as the radioligand.

Sequence of Sigma non-opioid intracellular receptor 1 (Cavia porcellus) (Q60492 whole entry, looked up): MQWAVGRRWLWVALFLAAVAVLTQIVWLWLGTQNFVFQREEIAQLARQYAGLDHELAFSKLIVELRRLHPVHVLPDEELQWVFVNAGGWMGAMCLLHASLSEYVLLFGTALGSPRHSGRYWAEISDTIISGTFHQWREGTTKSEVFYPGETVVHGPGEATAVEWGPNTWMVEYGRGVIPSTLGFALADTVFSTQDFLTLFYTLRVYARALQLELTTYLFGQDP

SMILES | Ki [1] | Ki [2]
COc1ccc(NC(=O)NC2CCN(Cc3ccccc3)CC2)c(OC)c1 [1-(1-Benzyl-piperidin-4-yl)-3-(2,4-dimethoxy-phenyl)-urea] | 30.1 nM | –
CSc1ccc(NC(=O)NC2CCN(Cc3ccccc3)CC2)cc1 [1-(1-Benzyl-piperidin-4-yl)-3-(4-methylsulfanyl-phenyl)-urea] | 63.9 nM | –
COc1cccc(C(O)CNC2CCN(Cc3ccccc3)CC2)c1OC (stereo not given) [2-(1-Benzyl-piperidin-4-ylamino)-1-(2,3-dimethoxy-phenyl)-ethanol] | 32.1 nM | –
Nc1ccc(CC(=O)NC2CCN(Cc3ccccc3)CC2)cc1 [2-(4-Amino-phenyl)-N-(1-benzyl-piperidin-4-yl)-acetamide] | 470 nM | –
O=C(Cc1ccc2c(c1)OCO2)NC1CCN(Cc2ccccc2)CC1 [2-Benzo[1,3]dioxol-5-yl-N-(1-benzyl-piperidin-4-yl)-acetamide] | 7.32 nM | –
O=C(Cc1ccc(Cl)cc1Cl)NC1CCN(Cc2ccccc2)CC1 [N-(1-Benzyl-piperidin-4-yl)-2-(2,4-dichloro-phenyl)-acetamide] | 9.66 nM | –
O=C(Cc1ccc(F)cc1F)NC1CCN(Cc2ccccc2)CC1 [N-(1-Benzyl-piperidin-4-yl)-2-(2,4-difluoro-phenyl)-acetamide] | 3.87 nM | –
O=C(Cc1ccc([N+](=O)[O-])cc1[N+](=O)[O-])NC1CCN(Cc2ccccc2)CC1 [N-(1-Benzyl-piperidin-4-yl)-2-(2,4-dinitro-phenyl)-acetamide] | 14.2 nM | –
O=C(Cc1cc(F)ccc1F)NC1CCN(Cc2ccccc2)CC1 [N-(1-Benzyl-piperidin-4-yl)-2-(2,5-difluoro-phenyl)-acetamide] | 4.21 nM | –
COc1ccc(OC)c(CC(=O)NC2CCN(Cc3ccccc3)CC2)c1 [N-(1-Benzyl-piperidin-4-yl)-2-(2,5-dimethoxy-phenyl)-acetamide] | 43.4 nM | –
O=C(Cc1c(Cl)cccc1Cl)NC1CCN(Cc2ccccc2)CC1 [N-(1-Benzyl-piperidin-4-yl)-2-(2,6-dichloro-phenyl)-acetamide] | 7.28 nM | –
O=C(Cc1c(F)cccc1F)NC1CCN(Cc2ccccc2)CC1 [N-(1-Benzyl-piperidin-4-yl)-2-(2,6-difluoro-phenyl)-acetamide] | 5.8 nM | –
O=C(Cc1ccccc1Br)NC1CCN(Cc2ccccc2)CC1 [N-(1-Benzyl-piperidin-4-yl)-2-(2-bromo-phenyl)-acetamide] | 2.89 nM | –
O=C(Cc1ccccc1Cl)NC1CCN(Cc2ccccc2)CC1 [N-(1-Benzyl-piperidin-4-yl)-2-(2-chloro-phenyl)-acetamide] | 3.08 nM | –
O=C(Cc1ccccc1O)NC1CCN(Cc2ccccc2)CC1 [N-(1-Benzyl-piperidin-4-yl)-2-(2-hydroxy-phenyl)-acetamide] | 18.8 nM | –
COc1ccccc1CC(=O)NC1CCN(Cc2ccccc2)CC1 [N-(1-Benzyl-piperidin-4-yl)-2-(2-methoxy-phenyl)-acetamide] | 30.8 nM | –
O=C(Cc1ccccc1[N+](=O)[O-])NC1CCN(Cc2ccccc2)CC1 [N-(1-Benzyl-piperidin-4-yl)-2-(2-nitro-phenyl)-acetamide] | 26.9 nM | –
O=C(Cc1ccccc1C(F)(F)F)NC1CCN(Cc2ccccc2)CC1 [N-(1-Benzyl-piperidin-4-yl)-2-(2-trifluoromethyl-phenyl)-acetamide] | 8.7 nM | –
COc1cc(CC(=O)NC2CCN(Cc3ccccc3)CC2)cc(OC)c1OC [N-(1-Benzyl-piperidin-4-yl)-2-(3,4,5-trimethoxy-phenyl)-acetamide] | 80 nM | –
O=C(Cc1ccc(Cl)c(Cl)c1)NC1CCN(Cc2ccccc2)CC1 [N-(1-Benzyl-piperidin-4-yl)-2-(3,4-dichloro-phenyl)-acetamide] | 5.22 nM | –

SMILES | Ki [1] | Ki [2]
O=C(Cc1ccc(F)c(F)c1)NC1CCN(Cc2ccccc2)CC1 [N-(1-Benzyl-piperidin-4-yl)-2-(3,4-difluoro-phenyl)-acetamide] | 3.17 nM | –
O=C(Cc1ccc(O)c(O)c1)NC1CCN(Cc2ccccc2)CC1 [N-(1-Benzyl-piperidin-4-yl)-2-(3,4-dihydroxy-phenyl)-acetamide] | – | > 1000 nM
COc1ccc(CC(=O)NC2CCN(Cc3ccccc3)CC2)cc1OC [N-(1-Benzyl-piperidin-4-yl)-2-(3,4-dimethoxy-phenyl)-acetamide] | 352 nM | –
O=C(Cc1cc(F)cc(F)c1)NC1CCN(Cc2ccccc2)CC1 [N-(1-Benzyl-piperidin-4-yl)-2-(3,5-difluoro-phenyl)-acetamide] | 7.63 nM | –
COc1cc(CC(=O)NC2CCN(Cc3ccccc3)CC2)cc(OC)c1 [N-(1-Benzyl-piperidin-4-yl)-2-(3,5-dimethoxy-phenyl)-acetamide] | 121 nM | –
O=C(Cc1cccc(Br)c1)NC1CCN(Cc2ccccc2)CC1 [N-(1-Benzyl-piperidin-4-yl)-2-(3-bromo-phenyl)-acetamide] | 0.87 nM | –
O=C(Cc1ccc(O)c(Cl)c1)NC1CCN(Cc2ccccc2)CC1 [N-(1-Benzyl-piperidin-4-yl)-2-(3-chloro-4-hydroxy-phenyl)-acetamide] | 23.8 nM | –
O=C(Cc1cccc(Cl)c1)NC1CCN(Cc2ccccc2)CC1 [N-(1-Benzyl-piperidin-4-yl)-2-(3-chloro-phenyl)-acetamide] | 1.4 nM | –
O=C(Cc1cccc(F)c1)NC1CCN(Cc2ccccc2)CC1 [N-(1-Benzyl-piperidin-4-yl)-2-(3-fluoro-phenyl)-acetamide] | 2.45 nM | –
O=C(Cc1cccc(O)c1)NC1CCN(Cc2ccccc2)CC1 [N-(1-Benzyl-piperidin-4-yl)-2-(3-hydroxy-phenyl)-acetamide] | 110 nM | –
COc1cccc(CC(=O)NC2CCN(Cc3ccccc3)CC2)c1 [N-(1-Benzyl-piperidin-4-yl)-2-(3-methoxy-phenyl)-acetamide] | 10.5 nM | –
O=C(Cc1cccc([N+](=O)[O-])c1)NC1CCN(Cc2ccccc2)CC1 [N-(1-Benzyl-piperidin-4-yl)-2-(3-nitro-phenyl)-acetamide] | 4.56 nM | –
O=C(Cc1cccc(C(F)(F)F)c1)NC1CCN(Cc2ccccc2)CC1 [N-(1-Benzyl-piperidin-4-yl)-2-(3-trifluoromethyl-phenyl)-acetamide] | 3.92 nM | –
O=C(Cc1ccc(Cl)cc1)NC1CCN(Cc2ccccc2)CC1 [N-(1-Benzyl-piperidin-4-yl)-2-(4-chloro-phenyl)-acetamide] | 6.46 nM | –
O=C(Cc1ccc(F)cc1)NC1CCN(Cc2ccccc2)CC1 [N-(1-Benzyl-piperidin-4-yl)-2-(4-fluoro-phenyl)-acetamide] | 3.43 nM | –
O=C(Cc1ccc(O)cc1)NC1CCN(Cc2ccccc2)CC1 [N-(1-Benzyl-piperidin-4-yl)-2-(4-hydroxy-phenyl)-acetamide] | 286 nM | –
COc1ccc(CC(=O)NC2CCN(Cc3ccccc3)CC2)cc1 [N-(1-Benzyl-piperidin-4-yl)-2-(4-methoxy-phenyl)-acetamide] | 66.4 nM | –
CSc1ccc(CC(=O)NC2CCN(Cc3ccccc3)CC2)cc1 [N-(1-Benzyl-piperidin-4-yl)-2-(4-methylsulfanyl-phenyl)-acetamide] | 27.1 nM | –
O=C(Cc1ccc([N+](=O)[O-])cc1)NC1CCN(Cc2ccccc2)CC1 [N-(1-Benzyl-piperidin-4-yl)-2-(4-nitro-phenyl)-acetamide] | 18 nM | –
O=C(Cc1ccc(C(F)(F)F)cc1)NC1CCN(Cc2ccccc2)CC1 [N-(1-Benzyl-piperidin-4-yl)-2-(4-trifluoromethyl-phenyl)-acetamide] | 9.84 nM | –
